# According to patent US20090012103A1, “SUBSTITUTED HETEROCYCLIC COMPOUNDS” (priority 2007, published 2009):
# Legend:
# [1] = molecular target: T1, wild-type human cardiac sodium channel, hNav1.5 (Homo sapiens, UniProt Q14524); assay: Peak INa screening assay (tonic block TB and use-dependent block UDB of peak sodium current); type: cell-based; details: compound at 10 μM
# Description: The late sodium current (Late INa) and peak sodium current (Peak INa) assays are performed on an automated electrophysiology platform, PatchXpress 7000A (MDS Analytical Technologies, Sunnyvale, Calif.), which uses the whole cell patch clamp technique to measure currents through the cell membrane of up to 16 cells at a time. The assay uses an HEK293 (human embryonic kidney) cell line heterologously expressing the wild-type human cardiac sodium channel, hNav1.5, purchased from Millipore (Billerica, Mass.). No beta subunits were coexpressed with the Na channel alpha subunit. […] Experiments are carried out at 24-27° C.
# For both the Late INa and Peak INa assays, series resistance compensation is set to 50% and whole-cell compensation is performed automatically. […] Currents through open sodium channels are automatically recorded and stored in the DataXpress2 database (MDS Analytical Technologies, Sunnyvale, Calif.). Analysis is performed using DataXpress2 analysis software and data are compiled in Excel.
# Compound stocks are routinely made in glass vials to 10 mM in dimethyl sulfoxide (DMSO). In some cases, when compounds are not soluble in DMSO, they are made in 100% ethanol. Stocks are sonicated as necessary. The extracellular solution for screening Late INa is composed of: 140 mM NaCl, 4 mM KCl, 1.8 mM CaCl2, 0.75 mM MgCl2, and 5 mM HEPES with pH adjusted to 7.4 using NaOH. The extracellular solution for screening Peak INa is composed of: 20 mM NaCl, 120 mM N-methyl-D glucamine, 4 mM KCl, 1.8 mM CaCl2, 0.75 mM MgCl2, and 5 mM HEPES with pH adjusted to 7.4 using HCl. The intracellular solution used to perfuse the inside of the cells for both the Late INa and Peak INa assays contains: 120 mM CsF, 20 mM CsCl, 5 mM EGTA, 5 mM HEPES and pH adjusted to 7.4 with CsOH. Compounds are diluted in extracellular solution to 10 μM in glass vials and then transferred to glass well plates before robotic addition to the cells. The 0 Na extracellular solution used at the end of each experiment for the Late INa and Peak INa assays to measure baseline current contains: 140 mM N-methyl-D-glucamine; 4 mM KCl; 1.8 mM CaCl2; 0.75 mM MgCl2; 5 mM HEPES and pH was adjusted to 7.4 with HCl.
# Compounds were also evaluated for their effect in several other assays, including their effect on Peak INa. In some cases, the effect on Peak INa was measured using data from the Late INa assay. […] Since the peak INa can be very large, introducing artifacts in the recording, the concentration of Na^+ in the bath is reduced to 20 mM and a nonpermeant cation is added to compensate for the Na^+ that was omitted from the standard extracellular solution (see above). The peak INa assay uses a holding potential of −100 mV and a 20 ms test pulse to 0 mV to activate the channel. As in the Late INa assay, stepping the voltage to 0 mV causes a rapid increase in negative Na current through hNav1.5 that inactivates within a few ms. No late INa activator is added for the peak assay.
# For the separate peak INa assay, both tonic (TB) block and use-dependent (UDB) block of peak inward sodium current by 10 μM compound are determined. TB is block of the channel in the resting state, before the channel opens. TB is simulated in this assay by stimulating the channel to open at a low frequency (0.1 Hz). This is done in order to measure the control current amplitude and monitor current rundown, enabling correction for rundown in the calculation of percent block for TB.
# [2] = molecular target: T1, wild-type human cardiac sodium channel, hNav1.5; assay: Late INa screening assay (late sodium current, PatchXpress whole cell patch clamp); type: cell-based; details: compound at 10 μM; read-out: Late INa % blk
# [3] = tonic block, read-out: Tonic Peak INa % blk
# [4] = use-dependent block, read-out: UDB Peak INa % blk
# T1 sequence (Q14524 whole entry): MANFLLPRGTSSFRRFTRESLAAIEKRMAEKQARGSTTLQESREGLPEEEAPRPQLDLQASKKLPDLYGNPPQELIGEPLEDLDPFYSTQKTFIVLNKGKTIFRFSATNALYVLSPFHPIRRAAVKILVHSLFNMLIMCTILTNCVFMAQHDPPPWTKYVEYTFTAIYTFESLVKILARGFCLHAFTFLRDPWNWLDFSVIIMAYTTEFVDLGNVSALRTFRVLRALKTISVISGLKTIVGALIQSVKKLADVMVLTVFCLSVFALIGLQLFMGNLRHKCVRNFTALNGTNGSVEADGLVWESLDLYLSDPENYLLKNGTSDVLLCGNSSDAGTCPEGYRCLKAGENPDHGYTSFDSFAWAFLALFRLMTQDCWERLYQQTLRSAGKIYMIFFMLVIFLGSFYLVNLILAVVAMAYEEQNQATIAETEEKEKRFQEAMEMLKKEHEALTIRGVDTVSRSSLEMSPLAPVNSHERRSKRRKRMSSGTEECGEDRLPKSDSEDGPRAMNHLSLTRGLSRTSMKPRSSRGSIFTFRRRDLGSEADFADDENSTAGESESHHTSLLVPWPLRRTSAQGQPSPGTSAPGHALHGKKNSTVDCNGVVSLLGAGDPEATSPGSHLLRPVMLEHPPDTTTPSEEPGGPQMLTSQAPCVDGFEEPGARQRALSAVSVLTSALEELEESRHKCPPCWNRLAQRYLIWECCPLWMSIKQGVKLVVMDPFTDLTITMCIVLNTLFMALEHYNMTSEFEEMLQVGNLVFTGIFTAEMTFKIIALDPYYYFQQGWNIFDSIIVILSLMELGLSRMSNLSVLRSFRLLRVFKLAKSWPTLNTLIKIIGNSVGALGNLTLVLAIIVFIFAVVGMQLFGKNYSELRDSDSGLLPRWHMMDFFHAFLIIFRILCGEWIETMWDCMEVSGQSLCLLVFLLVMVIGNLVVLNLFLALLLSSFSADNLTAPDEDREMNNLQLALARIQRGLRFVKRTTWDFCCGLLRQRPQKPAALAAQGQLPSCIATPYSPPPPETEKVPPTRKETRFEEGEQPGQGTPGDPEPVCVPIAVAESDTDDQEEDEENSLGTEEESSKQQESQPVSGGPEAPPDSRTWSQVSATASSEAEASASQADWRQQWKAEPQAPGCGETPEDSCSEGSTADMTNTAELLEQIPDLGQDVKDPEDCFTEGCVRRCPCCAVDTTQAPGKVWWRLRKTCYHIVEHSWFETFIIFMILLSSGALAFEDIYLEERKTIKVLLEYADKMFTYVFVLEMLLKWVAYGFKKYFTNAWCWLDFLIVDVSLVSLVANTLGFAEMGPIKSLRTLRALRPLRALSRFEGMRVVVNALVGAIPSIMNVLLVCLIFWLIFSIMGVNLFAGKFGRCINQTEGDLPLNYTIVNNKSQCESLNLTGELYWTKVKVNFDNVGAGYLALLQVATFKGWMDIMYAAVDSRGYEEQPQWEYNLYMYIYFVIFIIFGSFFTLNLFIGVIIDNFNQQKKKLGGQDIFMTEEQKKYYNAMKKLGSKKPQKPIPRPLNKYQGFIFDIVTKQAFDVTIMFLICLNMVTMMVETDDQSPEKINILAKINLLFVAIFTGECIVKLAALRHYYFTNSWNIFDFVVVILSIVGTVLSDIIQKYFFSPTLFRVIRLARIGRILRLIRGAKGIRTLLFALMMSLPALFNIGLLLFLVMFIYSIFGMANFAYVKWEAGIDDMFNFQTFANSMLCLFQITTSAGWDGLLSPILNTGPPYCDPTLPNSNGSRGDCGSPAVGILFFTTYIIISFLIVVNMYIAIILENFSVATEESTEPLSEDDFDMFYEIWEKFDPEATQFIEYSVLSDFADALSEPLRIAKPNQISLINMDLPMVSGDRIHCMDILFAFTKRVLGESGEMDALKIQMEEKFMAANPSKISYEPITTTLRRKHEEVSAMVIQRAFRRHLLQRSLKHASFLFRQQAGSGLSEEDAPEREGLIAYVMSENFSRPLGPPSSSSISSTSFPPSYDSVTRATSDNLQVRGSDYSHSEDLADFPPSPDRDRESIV
Structure (SMILES),"inhibition at 10 µM [1, 3]",inhibition at 10 µM [2],"inhibition at 10 µM [1, 4]"
"COC(=O)C1=C(C)Nc2nnnn2C1c1c(Br)sc2ccccc12 (stereo not drawn) [PT-518, methyl 7-(2-bromobenzo[b]thiophen-3-yl)-5-methyl-4,7-dihydrotetrazolo[1,5-a]pyrimidine-6-carboxylate]",24%,71.2%,–
"CC1=C(C(=O)OC(C)C)C(c2c[nH]nc2-c2cccs2)C2=C(CC(C)(C)CC2=O)N1 (stereo not drawn) [PT-162, isopropyl 2,7,7-trimethyl-5-oxo-4-(3-(thiophen-2-yl)-1H-pyrazol-4-yl)-1,4,5,6,7,8-hexahydroquinoline-3-carboxylate]",1.1%,-0.2%,–
"CCOC(=O)C1=C(C)Nc2nnnn2C1c1cccc(OCc2cccc(C(=O)OC)c2)c1 (stereo not drawn) [PT-495, ethyl 7-(3-(3-(methoxycarbonyl)benzyloxy)phenyl)-5-methyl-4,7-dihydrotetrazolo[1,5-a]pyrimidine-6-carboxylate]",20.7%,54.2%,11.6%
"CC1=C(c2nnc(Cc3ccccc3)o2)C(c2cccc3ccccc23)C2=C(CCCC2=O)N1 (stereo not drawn) [PT-276, 3-(5-benzyl-1,3,4-oxadiazol-2-yl)-2-methyl-4-(naphthalen-1-yl)-4,6,7,8-tetrahydroquinolin-5(1H)-one]",31.3%,49.7%,13%
"CC1=C(C(=O)OCc2ccccc2)C(c2ccccc2OCCN(C)C)n2nnnc2N1 (stereo not drawn) [PT-374, benzyl 7-(2-(2-(dimethylamino)ethoxy)phenyl)-5-methyl-4,7-dihydrotetrazolo[1,5-a]pyrimidine-6-carboxylate]",38.7%,66.3%,–
"COc1ccc(-c2sc3ccccc3c2C2C(C(=O)OCc3ccccc3)=C(C)Nc3nnnn32)cc1 (stereo not drawn) [PT-379, benzyl 7-(2-(4-methoxyphenyl)benzo[b]thiophen-3-yl)-5-methyl-4,7-dihydrotetrazolo[1,5-a]pyrimidine-6-carboxylate]",11.1%,55%,9.8%
"CCOC(=O)[C@@H]1CCCN(c2cc(OC)ccc2C2C(C(=O)OCc3ccccc3)=C(C)Nc3nnnn32)C1 (stereo partly drawn) [PT-373, benzyl 7-(2-((R)-3-(ethoxycarbonyl)piperidin-1-yl)-4-methoxyphenyl)-5-methyl-4,7-dihydrotetrazolo[1,5-a]pyrimidine-6-carboxylate]",22.5%,64.9%,–
"CCOC(=O)C1=C(C)Nc2nnnn2C1c1ccccc1I (stereo not drawn) [PT-492, ethyl 7-(2-iodophenyl)-5-methyl-4,7-dihydrotetrazolo[1,5-a]pyrimidine-6-carboxylate]",0.3%,39.3%,–
"CC1=C(C(=O)OC(c2ccc(F)cc2)c2ccc(F)cc2)C(c2cccs2)n2nnnc2N1 (stereo not drawn) [PT-423, bis(4-fluorophenyl)methyl 5-methyl-7-(thiophen-2-yl)-4,7-dihydrotetrazolo[1,5-a]pyrimidine-6-carboxylate]",18.5%,67.2%,20.4%
"CC1=C(C(=O)OCc2ccccc2)C(c2cc(C)c(C)s2)n2nnnc2N1 (stereo not drawn) [PT-414, benzyl 7-(4,5-dimethylthiophen-2-yl)-5-methyl-4,7-dihydrotetrazolo[1,5-a]pyrimidine-6-carboxylate]",21.6%,78%,–
"CC1=C(C(=O)OCC2CC2)C(c2c(Br)sc3ccccc23)n2nnnc2N1 (stereo not drawn) [PT-426, cyclopropylmethyl 7-(2-bromobenzo[b]thiophen-3-yl)-5-methyl-4,7-dihydrotetrazolo[1,5-a]pyrimidine-6-carboxylate]",60.1%,81%,50.7%
"CCOC(=O)C1=C(C)NC2=C(C(=O)CCC2)C1c1ccc(C)c2ccccc12 (stereo not drawn) [PT-135, ethyl 2-methyl-4-(4-methylnaphthalen-1-yl)-5-oxo-1,4,5,6,7,8-hexahydroquinoline-3-carboxylate]",9.6%,59.9%,–
"CCOC(=O)C1=C(C)Nc2nnnn2C1c1c(Br)sc2ccccc12 (stereo not drawn) [PT-489, ethyl 7-(2-bromobenzo[b]thiophen-3-yl)-5-methyl-4,7-dihydrotetrazolo[1,5-a]pyrimidine-6-carboxylate]",46.2%,80.7%,29.2%
"CC1=C(C(=O)OCc2ccccc2)C(c2sccc2-c2ccccc2)n2nnnc2N1 (stereo not drawn) [PT-352, benzyl 5-methyl-7-(3-phenylthiophen-2-yl)-4,7-dihydrotetrazolo[1,5-a]pyrimidine-6-carboxylate]",17.7%,76.3%,–
"CC1=C(C(=O)OCc2ccccc2)C(c2ccc3ccccc3c2)C2=C(CCCC2=O)N1 (stereo not drawn) [PT-320, benzyl 2-methyl-4-(naphthalen-2-yl)-5-oxo-1,4,5,6,7,8-hexahydroquinoline-3-carboxylate]",16.7%,51%,26.5%
"COc1cc([N+](=O)[O-])ccc1C1C(C(=O)OCc2ccccc2)=C(C)Nc2ccnn21 (stereo not drawn) [PT-394, benzyl 7-(2-methoxy-4-nitrophenyl)-5-methyl-4,7-dihydropyrazolo[1,5-a]pyrimidine-6-carboxylate]",15.4%,45.2%,8%
"CC1=C(C(=O)OCc2ccccc2)C(c2sccc2Br)n2nnnc2N1 (stereo not drawn) [PT-401, benzyl 7-(3-bromothiophen-2-yl)-5-methyl-4,7-dihydrotetrazolo[1,5-a]pyrimidine-6-carboxylate]",25.9%,77.3%,–
"CCOC(=O)[C@@H]1CCCN(c2cc(OC)ccc2C2C(C(=O)OCc3ccccc3)=C(C)Nc3[nH]ncc32)C1 (stereo partly drawn) [PT-327, benzyl 4-(2-((R)-3-(ethoxycarbonyl)piperidin-1-yl)-4-methoxyphenyl)-6-methyl-4,7-dihydro-1H-pyrazolo[3,4-b]pyridine-5-carboxylate]",18.5%,35.3%,9.4%
"CC1=C(C(=O)O[C@@H](C)c2ccccc2)C(c2cccc3ccccc23)n2nnnc2N1 (stereo partly drawn) [PT-048, (S)-1-phenylethyl 5-methyl-7-(naphthalen-1-yl)-4,7-dihydrotetrazolo[1,5-a]pyrimidine-6-carboxylate]",58.6%,90.8%,–
"CCOC(=O)C1=C(C)Nc2nnnn2C1c1sccc1-c1cccc(F)c1 (stereo not drawn) [PT-496, ethyl 7-(3-(3-fluorophenyl)thiophen-2-yl)-5-methyl-4,7-dihydrotetrazolo[1,5-a]pyrimidine-6-carboxylate]",36.8%,84.2%,9.1%
"CC1=C(C(=O)OCC(F)(F)F)C(c2cccc3ccccc23)n2nnnc2N1 (stereo not drawn) [PT-014, 2,2,2-trifluoroethyl 5-methyl-7-(naphthalen-1-yl)-4,7-dihydrotetrazolo[1,5-a]pyrimidine-6-carboxylate]",9%,50.9%,–
"CC1=C(C(=O)OC(C)C)C(c2c(Br)sc3ccccc23)n2nnnc2N1 (stereo not drawn) [PT-506, isopropyl 7-(2-bromobenzo[b]thiophen-3-yl)-5-methyl-4,7-dihydrotetrazolo[1,5-a]pyrimidine-6-carboxylate]",48.8%,81.4%,23%
"N#CC1=C(N)OC2=C(C(=O)CC(c3ccccc3)C2)C1c1ccsc1 (stereo not drawn) [PT-102, 2-amino-5-oxo-7-phenyl-4-(thiophen-3-yl)-5,6,7,8-tetrahydro-4H-chromene-3-carbonitrile]",2.7%,44.9%,–
